According to patent US10543216B2, “Modus of administration of iron, and new formulations adapted for the said goal” (BIOFER S.P.A., priority 2013, dated 2020):

System: Pig esophageal epithelium
Assay: in vitro permeation in the Franz cell (model of sublingual absorption)
Conditions: Franz cell, pig esophageal epithelium, 37° C.
Protocol: Sublingual absorption of Fe++ compounds was evaluated by means of in vitro permeation experiments using the Franz cell exemplified in FIG. 1. Pig esophageal epithelium was used as membrane. This experimental model is recognized as valid and reliable in the assessment of sublingual absorption of drugs [I. Diaz Del Consuelo, G. P. Pizzolato, F. Falsom, R. H. Guy, and Y. Jacques.: Evaluation of pig esophageal mucosa as a permeability barrier model for buccosal tissue. J. Pharm. […] Arch. […] Membrane preparation occurred by following the method described here. The esophagi were taken from the animals within one hour after sacrifice. The mucosa was separated from the muscle tissue with a lancet. To separate the epithelium, the mucosa was immersed in distilled water at 60° C. for 2 minutes and then the epithelium was removed from the underlying tissue with the aid of a spatula. The tissues thus prepared were stored at −20° C. until the time of use, when they were thawed to room temperature before being mounted on the vertical diffusion cells of the Franz type, a schematic view of which is shown in FIG. 1. The esophageal epithelium was placed on a regenerated cellulose filter (pore diameter 0.45 μm) with the luminal side facing up, and mounted between the donor and receptor compartments of the Franz cells. […] The exposed surface was 0.6 cm^2. The receptor compartment was filled with approximately 4 ml of physiological solution (0.9% NaCl w/v) and kept under constant magnetic agitation for the entire duration of the experiment. The entire system was thermostat-controlled at 37° C. Sampling of the receptor compartment was performed by drawing 200 μl of receptor solution, which were replaced immediately with an equal volume of fresh physiological solution. The samples were taken at preset time intervals, specifically at 0, 1, 2, 3, 4, 5 and 6 hours.
4 g of powder were suspended in 10 ml of physiological solution and left under agitation for 15 minutes, then the solution was filtered with regenerated cellulose filters (pore diameter 0.45 μm).
6 g of powder were suspended in 10 ml of physiological solution. The suspension was left under magnetic agitation for 25 minutes and then filtered with regenerated cellulose filters (pore diameter 0.45 μm).
7 g of powder were suspended in 6 ml of physiological solution. The suspension was left under magnetic agitation for 1 hour; at the end it was filtered with regenerated cellulose filters (pore diameter 0.45 μm).
An excess of ascorbic acid (2 g) was added to the solution. The suspension was left under magnetic agitation for 30 minutes and after filtration through regenerated cellulose filters (pore diameter 0.45 μm) was used as it was.
4 g of powder were suspended in 10 ml of physiological solution. The suspension was left under magnetic agitation for 15 hours, at the end of which it was filtered with regenerated cellulose filters (pore diameter 0.45 μm).
An excess of powder was suspended in 10 ml of physiological solution. The suspension was left under magnetic agitation for 15 hours, at the end of which it was filtered with regenerated cellulose filters (pore diameter 0.45 μm).

ferric citrate
permeation / absorption through the epithelium (in words): appreciable only at very low pH values
